Data on two compounds can be found in paper PMC6913882 (ACS chemical biology, 2018).

The Kd is the concentration at which binding is half-saturated. Higher therefore signals a looser complex.

Holding throughout (assay type): binding
Assay [1] addresses T1, DNA methyltransferase-1 (mDNMT1) (Mus musculus, UniProt P13864). Briefly: SPR. Background: Surface plasmon resonance follows binding to a sensor surface in real time, without labels.
Assay [2] has as its target T2, DNA methyltransferase-1 (mDNMT1) (Mus musculus, UniProt P13864, N1248A). Briefly: crystal structure at […] Å.
For assay [3], the target named is T1, DNA methyltransferase-1 (mDNMT1). Put plainly: SPR. The source holds these as a separate data set.
The target in assay [4] is T2, DNA methyltransferase-1 (mDNMT1). Put plainly: SPR.
The target of assay [5] is DNA methyltransferase-1 (mDNMT1) (Mus musculus, UniProt P13864, R1279D). Briefly: SPR.

Like-named read-outs stand apart in the source and are kept apart here.

T1 sequence (P13864 731-1602): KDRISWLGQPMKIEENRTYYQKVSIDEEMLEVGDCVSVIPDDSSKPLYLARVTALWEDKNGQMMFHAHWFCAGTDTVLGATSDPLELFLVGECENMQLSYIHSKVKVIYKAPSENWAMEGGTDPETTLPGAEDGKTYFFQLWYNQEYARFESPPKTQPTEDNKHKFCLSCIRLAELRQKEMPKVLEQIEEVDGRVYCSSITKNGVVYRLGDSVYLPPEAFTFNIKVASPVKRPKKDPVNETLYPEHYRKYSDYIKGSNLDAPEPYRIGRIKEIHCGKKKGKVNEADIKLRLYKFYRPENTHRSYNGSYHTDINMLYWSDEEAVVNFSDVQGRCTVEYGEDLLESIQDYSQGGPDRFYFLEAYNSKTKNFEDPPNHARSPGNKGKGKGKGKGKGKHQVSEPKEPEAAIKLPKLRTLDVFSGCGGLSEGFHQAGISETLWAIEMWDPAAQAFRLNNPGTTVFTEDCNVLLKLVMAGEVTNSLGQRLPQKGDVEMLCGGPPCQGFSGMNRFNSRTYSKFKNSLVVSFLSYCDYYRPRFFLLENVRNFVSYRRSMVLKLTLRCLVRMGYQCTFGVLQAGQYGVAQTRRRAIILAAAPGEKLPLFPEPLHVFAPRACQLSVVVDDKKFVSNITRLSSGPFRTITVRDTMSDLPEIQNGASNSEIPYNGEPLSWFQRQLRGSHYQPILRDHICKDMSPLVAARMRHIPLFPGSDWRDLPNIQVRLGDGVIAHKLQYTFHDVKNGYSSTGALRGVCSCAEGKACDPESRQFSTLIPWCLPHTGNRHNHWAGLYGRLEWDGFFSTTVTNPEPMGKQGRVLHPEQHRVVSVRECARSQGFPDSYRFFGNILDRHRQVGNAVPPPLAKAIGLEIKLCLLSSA
T2 sequence (P13864 731-1602 N1248A): as the sequence (P13864 731-1602) above, with N518A counted along it
DNA methyltransferase-1 (mDNMT1) (Mus musculus, UniProt P13864, R1279D), sequence (P13864 731-1602 R1279D): as the sequence (P13864 731-1602) above, with R549D counted along it

Turning to `Nc1ncnc2c1ncn2[C@@H]1O[C@H](CSCC[C@H](N)C(=O)O)[C@@H](O)[C@H]1O` [AdoHcy], the Kd in assay [1] was around 0.47 µM; in assay [2] it was “The N1248A mutant was bound to AdoHcy (Figure S5A)”.

Take `C[S+](CC[C@H](N)C(=O)[O-])C[C@H]1O[C@@H](n2cnc3c(N)ncnc32)[C@H](O)[C@@H]1O` (some centres unmarked) [AdoMet]: the equilibrium dissociation constant (Kd) in assay [3] was around 5.75 µM; in assay [4] it was 6.61 µM; in assay [5] it was 3.78 µM.
